Laboratory results from PubChem BioAssay (NCI).
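Values below derive from 48-hour exposures of cells grown in 96-well plates, with endpoints linearly interpolated between the two concentrations bracketing the appropriate inhibition level. Abbreviation: GI50, concentration required for 50% inhibition of growth. TGI: total growth inhibition.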

Key:
Assay in all cases: NCI anticancer screen, dose series, 48 h
[1] = system: KM12 colon
[2] = system: SF-295 CNS
[3] = system: HS 578T breast
[4] = system: U251 CNS
[5] = system: SW-620 colon
[6] = system: HL-60(TB) leukemia
[7] = system: COLO 205 colon
[8] = system: OVCAR-4 ovarian
[9] = system: NCI-H226 lung
[10] = system: A498 renal

Structure (SMILES) | GI50 [1] | TGI [1] | GI50 [2] | TGI [2] | GI50 [3] | TGI [3] | GI50 [4] | TGI [4] | GI50 [5] | TGI [5] | GI50 [6] | TGI [6] | GI50 [7] | TGI [7] | GI50 [8] | TGI [8] | GI50 [9] | TGI [9] | GI50 [10] | TGI [10]
CC(C)(C)c1cc(C[P+](c2ccccc2)(c2ccccc2)c2ccccc2)cc(C(C)(C)C)c1O | 0.364 µM | 1.51 µM | 0.547 µM | 6.79 µM | 0.51 µM | 17.1 µM | 0.268 µM | 3.76 µM | 0.528 µM | 12 µM | 0.22 µM | 0.682 µM | 0.199 µM | 0.521 µM | 0.337 µM | 9.16 µM | 1.45 µM | 18.3 µM | 0.451 µM | 3.69 µM
CCOc1ccccc1/C=N\N=C(N/N=C/c1ccccc1OCC)N/N=C/c1ccccc1OCC | 1.72 µM | > 100 µM | 2.41 µM | > 100 µM | 2.22 µM | 8.39 µM | 1.53 µM | > 100 µM | 3.24 µM | > 100 µM | 5.21 µM | > 100 µM | 1.43 µM | 2.98 µM | 1.17 µM | > 100 µM | 2.74 µM | > 100 µM | 2.17 µM | 8.45 µM
Nc1nc(Sc2ccc([N+](=O)[O-])c3nonc23)c2ncn(C3OC(CO)C(O)C3O)c2n1 (centres undefined) | 2.89 µM | > 64.1 µM | 1.95 µM | > 100 µM | 7.89 µM | 46.3 µM | 0.685 µM | > 85.1 µM | 1.12 µM | > 35 µM | 3.7 µM | 23.5 µM | 2.59 µM | 14.4 µM | 1.89 µM | 17.8 µM | 2.2 µM | 29 µM | 2.28 µM | 14 µM
COc1cccc(S(=O)(=O)NC2=NCCN2C(=S)SN2CCn3c2nsc3=S)c1 | 30.5 µM | 80.1 µM | > 100 µM | > 100 µM | 90.3 µM | > 100 µM | 22 µM | 61.8 µM | 34 µM | > 100 µM | 26.1 µM | 79.4 µM | 17.8 µM | 39.6 µM | 34.2 µM | > 100 µM | 30.9 µM | > 100 µM | 68.4 µM | > 100 µM
CN1CCN(C)C1c1ccc(C2N(C)CCN2C)cc1 | 46.5 µM | > 100 µM | > 100 µM | > 100 µM | 64 µM | > 100 µM | 39.7 µM | > 100 µM | 25 µM | > 100 µM | 37.7 µM | > 100 µM | 23 µM | 65.2 µM | 38.3 µM | > 100 µM | > 100 µM | > 100 µM | 14.4 µM | > 100 µM
CCNCC(=O)Nc1ccc2c(c1)C(=O)c1ccc(NC(=O)CNCC)cc1C2=O | – | > 100 µM | – | 14.2 µM | – | 22.1 µM | – | 5.3 µM | – | 12.8 µM | – | 8.81 µM | – | 3.69 µM | – | 2.24 µM | – | 20 µM | – | 6.46 µM
CCCN(CCC)c1ccc(/C=N/NC(=O)c2cccnc2)c(C)c1 | 11.9 µM | 24.5 µM | 10.7 µM | 25.5 µM | 13.9 µM | 48.2 µM | 13.3 µM | 26 µM | 14.8 µM | 35.7 µM | 13.4 µM | 39.5 µM | 14.5 µM | 27.6 µM | 15.3 µM | 78.5 µM | 12 µM | 26.3 µM | 1.06 µM | 3.54 µM
CC(C)[C@@]12C[C@@H](OC(=O)C3CO3)[C@@](C)(O1)[C@@H]1CC[C@@H](C)[C@H]1[C@@H]2OC(=O)/C=C/c1ccccc1 (some centres undefined) | 18.7 µM | 38.1 µM | 16.9 µM | 32.2 µM | 0.354 µM | 3.11 µM | 18.7 µM | 44.3 µM | 18.5 µM | 39.3 µM | 22.7 µM | 68.3 µM | 27.8 µM | > 100 µM | 13.2 µM | 26.6 µM | 13.5 µM | 29.3 µM | 2.05 µM | 4.91 µM
Nc1nc(-c2cccnc2)cc(-c2cc(-c3cccnc3)nc(N)n2)n1 | – | > 100 µM | – | > 100 µM | – | > 100 µM | – | > 100 µM | – | > 100 µM | – | > 100 µM | – | > 100 µM | – | > 100 µM | – | > 100 µM | – | > 100 µM
COc1cc2c3c(n(CCCN=[N+]=[N-])c(=O)c2cc1OC)-c1ccc(F)cc1C3=O | 41.2 µM | > 100 µM | 2.62 µM | 7.97 µM | > 100 µM | > 100 µM | 4.6 µM | 55.6 µM | 6.29 µM | > 100 µM | 44.4 µM | > 100 µM | 23.8 µM | > 100 µM | 55.9 µM | > 100 µM | 43.2 µM | > 100 µM | 39.6 µM | > 100 µM
COc1ccc(Nc2ncc(I)c(NCCCNC(=O)C3CCC3)n2)cc1 | 3.42 µM | > 100 µM | 3.5 µM | > 100 µM | 2.94 µM | 13.2 µM | 2.08 µM | 28.9 µM | 9.28 µM | > 100 µM | 3.47 µM | 14.7 µM | 3.07 µM | 12.2 µM | 9.31 µM | 64.2 µM | 3.91 µM | 67.1 µM | 7.25 µM | 21.7 µM
O=c1[nH]c(-c2ccc(Cl)c(Cl)c2)cn1-c1ccc(Cl)cc1 | 71.3 µM | > 100 µM | 25 µM | 64 µM | 17.2 µM | 51.8 µM | 17.4 µM | 42.8 µM | 33.1 µM | > 100 µM | 34.1 µM | > 100 µM | 40.3 µM | > 100 µM | 19.7 µM | 35.3 µM | 22.9 µM | 54.1 µM | 22.2 µM | 47.6 µM
Oc1ccc(N=Nc2ccc(Br)cc2)c(O)c1 | 3.31 µM | 39.8 µM | 2.64 µM | 11.5 µM | 2.2 µM | 6.77 µM | 3.59 µM | 24.8 µM | 3.64 µM | > 100 µM | 1.71 µM | 4.53 µM | 17.8 µM | 48.9 µM | 6.31 µM | > 100 µM | 7.91 µM | 42.9 µM | 3.26 µM | 20.7 µM
COc1cc2c(cc1OC)[C@@H]1C(=O)c3ccc4c(c3O[C@@H]1CO2)C[C@H](C(C)C)O4 | 5.31 µM | 26.1 µM | 0.294 µM | – | 8.15 µM | > 46.6 µM | 4.57 µM | > 38.2 µM | 9.05 µM | > 46.7 µM | 1.51 µM | > 23.8 µM | 6.19 µM | 20.8 µM | 0.795 µM | > 100 µM | 8.89 µM | > 100 µM | 0.661 µM | > 31 µM
CCn1nc(C2CCN(C(=O)CCO)CC2)nc1-c1cnc(N)c(-c2nnc(C(C)(C)C)o2)n1 | 14.9 µM | 45.1 µM | 3.27 µM | > 100 µM | 0.836 µM | 57 µM | > 65.5 µM | > 100 µM | 18.3 µM | > 100 µM | 0.263 µM | 97.5 µM | 2.85 µM | 21.5 µM | 53.7 µM | > 100 µM | 25.8 µM | > 100 µM | 0.617 µM | 5.12 µM
COc1ccc(Sc2[nH]c(C=O)c3ccccc23)cc1 | 3.62 µM | 13.7 µM | 9.16 µM | 26.9 µM | 6.44 µM | 33.6 µM | 12.3 µM | 24.8 µM | 3.72 µM | 16.4 µM | 5.09 µM | 28.4 µM | 0.664 µM | 6 µM | 22.4 µM | 61.7 µM | 2.62 µM | 16.8 µM | 3.44 µM | 23.5 µM
Cc1cccc2c(=O)c3c(sc12)c(NCCCNCCO)nc1ccccc13 | 1.72 µM | 3.25 µM | 1.72 µM | 3.18 µM | 1.63 µM | 3.62 µM | 1.5 µM | 2.96 µM | 1.43 µM | 2.99 µM | 1.82 µM | 3.49 µM | 1.61 µM | 3.24 µM | 1.8 µM | 3.44 µM | 1.6 µM | 3.33 µM | 1.3 µM | 2.83 µM
CCCCCCOC(=O)CC1=C(C)/C(=C/c2[nH]c(-c3ccc[nH]3)cc2OC)N=C1C | 0.0535 µM | 1.4 µM | 0.12 µM | 0.466 µM | 0.133 µM | 1.17 µM | 0.0675 µM | 1.13 µM | 0.0384 µM | 1.35 µM | 0.385 µM | 1.76 µM | 0.087 µM | 1.09 µM | 0.0785 µM | 1.71 µM | 0.137 µM | 1.06 µM | 0.321 µM | 1.33 µM
